In patent publication US20240041827A1, “COMPOSITIONS FOR THE TREATMENT OF FAT RELATED CONDITIONS AND DISORDERS” (priority 2020, published 2024):
Where two headings read alike, the source gives them in different places.

System: human visceral preadipocytes
Assay: cells
Settings: for IC50: Homo sapiens
Procedure: Human visceral preadipocytes were seeded in 96-well white clear bottom plates at 10,000 cells per well in 100 μl pre-adipocyte medium and incubated overnight at 37° C. 5% CO2. On the following day, adipogenic differentiation was induced by addition of 100 μl/well differentiation medium and incubation continued for 5 days. Adipogenic differentiation was verified by microscopic evaluation, addition of adipored reagents and fluorescent measurement at Ex485 nm/Em572 nm. […] Staurosporine (1 μM) and 0.2% DMSO were used as controls. Plates were incubated at 37° C. 5% CO2 for 2, 6 and 24 hours. Following incubation, cytotoxicity was measured using Cell Titer Glo 2.0 (Promega).
Test Item RZL-12 (1-300 μM) was prepared on the day of the testing as 150 mM stock solutions in DMSO. The 150 mM represents a 500×stock of the highest desired tested concentration. The 150 mM stock solution was first serially diluted in DMSO to acquire 500×stock solutions for each of the RZL-012 concentrations. The 500×stock solutions were then diluted 1:25 in medium to acquire 20×intermediate stock solutions. Finally, the 20×intermediate stock solutions were further diluted 1:20 in the assay (on the plate) that included seeded cells.
The 600 μM represents a 20× stock of the highest desired tested concentration. […] Finally, the 20×intermediate stock solutions were further diluted 1:20 in the assay plate that included seeded cells.
Human visceral pre-adipocytes (HPrAD-vis): HPrAD-vis cells (Lonza cat #PT-5005) were thawed at 37° C. and transferred into 50 ml tubes containing pre-adipocytes PGM-2 growth medium (PBM-2, 10% FBS, 1-glutamine, GA-1000). Cells were centrifuged at 300 g for 10 minutes, the supernatant was removed (Leaving about 1 ml of wash medium for not disrupting the cells) and 2 ml fresh PGM-2 medium was added. After resuspension, cells were counted and seeded in T-75 and T25 flasks at a density of 9,000 cells/cm^2 ([…], 225,000 cells/T25 flask). Medium was changed every 2-3 days until reached confluence of 70%.
Cells were sub-cultured only once, as soon as they reached 70% confluence. For this purpose, the culture medium of each flask was removed and cells were washed once with 5 ml PBS. The flask was shaken to ensure that the entire surface was covered and the PBS was removed. Then, 3 ml/T75 flask or 1 ml/T25 flask of fresh dedicated Trypsin/EDTA solution (from Lonza) was added and the flasks were incubated for 3-4 minutes at RT until ˜90% cells were detached. The Trypsin/EDTA solution was then neutralized by addition of 6 ml/T75 flask or 3 ml/T25 flask of full PGM-2 growth medium. Cells were collected in 50 ml tubes and centrifuged 10 minutes at 300 g. The supernatant was removed and the cells were resuspended in 3 ml fresh medium. Cells were then counted using a haemacytometer slide after being diluted 1:2 in trypan blue (SIGMA). For sub-culturing, cells were seeded in new T75 flasks at a density of 9,000 cells/cm^2 containing 15 ml fresh growth medium. Alternatively, the cells were seeded in 96-well culture plates at a density of 10,000 cells/well for the cell treatments.
HPrAD-vis cells: HPrAD-vis passaged once were seeded in 96-well plates as described above (10000cells/well in 100 μl medium) and allowed to settle overnight at 37° C., 5% CO2. Following day, adipogenic differentiation was induced by addition of 100 μl/well differentiation medium and incubated for 5 days. Adipogenic differentiation was verified by microscopic evaluation, addition of adipored reagents and fluorescent measurement at Ex485 nm/Em572 nm. In the morning of day 6, test and reference items were prepared as described above. Cells' medium was replaced with 90 μl fresh differentiation medium. […] Staurosporine (1 μM) and 0.2% DMSO were used as controls. Plates were incubated at 37° C. 5% CO2 for 2, 6 and 24 hours. Following incubation, cell viability was determined using the CellTiter-Gg® viability reagent (Promega) with reading of plates for luminescence. […]

## C[N+](C)(C)CCCCCn1c2ccc(Br)cc2c2cc(Br)ccc21.[Cl-] [RZL-012, 5-(3,6-dibromo-9H-carbazol-9-yl)-N,N,N-trimethylpentan-1-aminium chloride]
2 h, read-out: IC50 of RZL-12 in the presence of Collagenase, Collagenase 0, 2 h incubation
  IC50: 31.4 µM
2 h, read-out: IC50 of RZL-12 in the presence of Collagenase, Collagenase 0.1 μM, 2 h incubation
  IC50: 32.4 µM
2 h, read-out: IC50 of RZL-12 in the presence of Collagenase, Collagenase 0.3 μM, 2 h incubation
  IC50: 35.7 µM
2 h, read-out: IC50 of RZL-12 in the presence of Collagenase, Collagenase 1 μM, 2 h incubation
  IC50: 32.6 µM
2 h, read-out: IC50 of RZL-12 in the presence of Collagenase, Collagenase 3 μM, 2 h incubation
  IC50: ~31.2 µM
2 h, read-out: IC50 of RZL-12 in the presence of Collagenase, Collagenase 10 μM, 2 h incubation
  IC50: 71.3 µM
2 h, read-out: IC50 of RZL-12 in the presence of Collagenase, Collagenase 30 μM, 2 h incubation
  IC50: ~93.2 µM
6 h, read-out: IC50 of RZL-12 in the presence of Collagenase, Collagenase 0, 6 h incubation
  IC50: 34.6 µM
6 h, read-out: IC50 of RZL-12 in the presence of Collagenase, Collagenase 0.1 μM, 6 h incubation
  IC50: 44.3 µM
6 h, read-out: IC50 of RZL-12 in the presence of Collagenase, Collagenase 0.3 μM, 6 h incubation
  IC50: 45.1 µM
6 h, read-out: IC50 of RZL-12 in the presence of Collagenase, Collagenase 1 μM, 6 h incubation
  IC50: 44.2 µM
6 h, read-out: IC50 of RZL-12 in the presence of Collagenase, Collagenase 3 μM, 6 h incubation
  IC50: ~30.5 µM
6 h, read-out: IC50 of RZL-12 in the presence of Collagenase, Collagenase 10 μM, 6 h incubation
  IC50: 36.5 µM
6 h, read-out: IC50 of RZL-12 in the presence of Collagenase, Collagenase 30 μM, 6 h incubation
  IC50: 38.8 µM
24 h, read-out: IC50 of RZL-12 in the presence of Collagenase, Collagenase 0, 24 h incubation
  IC50: 22.8 µM
24 h, read-out: IC50 of RZL-12 in the presence of Collagenase, Collagenase 0.1 μM, 24 h incubation
  IC50: 38 µM
24 h, read-out: IC50 of RZL-12 in the presence of Collagenase, Collagenase 0.3 μM, 24 h incubation
  IC50: 38.5 µM
24 h, read-out: IC50 of RZL-12 in the presence of Collagenase, Collagenase 1 μM, 24 h incubation
  IC50: ~36.1 µM
24 h, read-out: IC50 of RZL-12 in the presence of Collagenase, Collagenase 3 μM, 24 h incubation
  IC50: 22.9 µM
24 h, read-out: IC50 of RZL-12 in the presence of Collagenase, Collagenase 10 μM, 24 h incubation
  IC50: 28.8 µM
24 h, read-out: IC50 of RZL-12 in the presence of Collagenase, Collagenase 30 μM, 24 h incubation
  IC50: 28.8 µM
read-out: IC50 when combined, RZL-012 and collagenase combined
  IC50: 0.02 µM
RZL12 0.01 μM, Collagenase 0, 2 h of incubation
  Average RZL-012 and collagenase induced cell death (% vs untreated cells): 10.0%
RZL12 0.01 μM, Collagenase 0.1 μM, 2 h of incubation
  Average RZL-012 and collagenase induced cell death (% vs untreated cells): 6.5%
RZL12 0.01 μM, Collagenase 0.3 μM, 2 h of incubation
  Average RZL-012 and collagenase induced cell death (% vs untreated cells): 0.8%
RZL12 0.01 μM, Collagenase 1 μM, 2 h of incubation
  Average RZL-012 and collagenase induced cell death (% vs untreated cells): 5.3%
RZL12 0.01 μM, Collagenase 3 μM, 2 h of incubation
  Average RZL-012 and collagenase induced cell death (% vs untreated cells): 20.5%
RZL12 0.01 μM, Collagenase 10 μM, 2 h of incubation
  Average RZL-012 and collagenase induced cell death (% vs untreated cells): 30.3%
RZL12 0.01 μM, Collagenase 30 μM, 2 h of incubation
  Average RZL-012 and collagenase induced cell death (% vs untreated cells): 46.4%
RZL12 1 μM, Collagenase 0, 2 h of incubation
  Average RZL-012 and collagenase induced cell death (% vs untreated cells): 7.0%
RZL12 1 μM, Collagenase 0, 24 h of incubation
  Average RZL-012 and collagenase induced cell death (% vs untreated cells): 4.88%
RZL12 1 μM, Collagenase 0.1 μM, 2 h of incubation
  Average RZL-012 and collagenase induced cell death (% vs untreated cells): 6.5%
RZL12 1 μM, Collagenase 0.1 μM, 24 h of incubation
  Average RZL-012 and collagenase induced cell death (% vs untreated cells): 8.18%
RZL12 1 μM, Collagenase 0.3 μM, 2 h of incubation
  Average RZL-012 and collagenase induced cell death (% vs untreated cells): 3.0%
RZL12 1 μM, Collagenase 0.3 μM, 24 h of incubation
  Average RZL-012 and collagenase induced cell death (% vs untreated cells): −0.25%
RZL12 1 μM, Collagenase 1 μM, 2 h of incubation
  Average RZL-012 and collagenase induced cell death (% vs untreated cells): 2.0%
RZL12 1 μM, Collagenase 1 μM, 24 h of incubation
  Average RZL-012 and collagenase induced cell death (% vs untreated cells): 16.48%
RZL12 1 μM, Collagenase 3 μM, 2 h of incubation
  Average RZL-012 and collagenase induced cell death (% vs untreated cells): 19.2%
RZL12 1 μM, Collagenase 3 μM, 24 h of incubation
  Average RZL-012 and collagenase induced cell death (% vs untreated cells): 28.74%
RZL12 1 μM, Collagenase 10 μM, 2 h of incubation
  Average RZL-012 and collagenase induced cell death (% vs untreated cells): 29.9%
RZL12 1 μM, Collagenase 10 μM, 24 h of incubation
  Average RZL-012 and collagenase induced cell death (% vs untreated cells): 64.29%
RZL12 1 μM, Collagenase 30 μM, 2 h of incubation
  Average RZL-012 and collagenase induced cell death (% vs untreated cells): 48.0%
RZL12 1 μM, Collagenase 30 μM, 24 h of incubation
  Average RZL-012 and collagenase induced cell death (% vs untreated cells): 78.45%
RZL12 3 μM, Collagenase 0, 2 h of incubation
  Average RZL-012 and collagenase induced cell death (% vs untreated cells): 5.9%
RZL12 3 μM, Collagenase 0, 24 h of incubation
  Average RZL-012 and collagenase induced cell death (% vs untreated cells): 6.40%
RZL12 3 μM, Collagenase 0.1 μM, 2 h of incubation
  Average RZL-012 and collagenase induced cell death (% vs untreated cells): −1.6%
RZL12 3 μM, Collagenase 0.1 μM, 24 h of incubation
  Average RZL-012 and collagenase induced cell death (% vs untreated cells): 3.62%
RZL12 3 μM, Collagenase 0.3 μM, 2 h of incubation
  Average RZL-012 and collagenase induced cell death (% vs untreated cells): 1.1%
RZL12 3 μM, Collagenase 0.3 μM, 24 h of incubation
  Average RZL-012 and collagenase induced cell death (% vs untreated cells): 2.09%
RZL12 3 μM, Collagenase 1 μM, 2 h of incubation
  Average RZL-012 and collagenase induced cell death (% vs untreated cells): 6.1%
RZL12 3 μM, Collagenase 1 μM, 24 h of incubation
  Average RZL-012 and collagenase induced cell death (% vs untreated cells): 16.21%
RZL12 3 μM, Collagenase 3 μM, 2 h of incubation
  Average RZL-012 and collagenase induced cell death (% vs untreated cells): 18.0%
RZL12 3 μM, Collagenase 3 μM, 24 h of incubation
  Average RZL-012 and collagenase induced cell death (% vs untreated cells): 27.36%
RZL12 3 μM, Collagenase 10 μM, 2 h of incubation
  Average RZL-012 and collagenase induced cell death (% vs untreated cells): 26.4%
RZL12 3 μM, Collagenase 10 μM, 24 h of incubation
  Average RZL-012 and collagenase induced cell death (% vs untreated cells): 63.40%
RZL12 3 μM, Collagenase 30 μM, 2 h of incubation
  Average RZL-012 and collagenase induced cell death (% vs untreated cells): 47.6%
RZL12 3 μM, Collagenase 30 μM, 24 h of incubation
  Average RZL-012 and collagenase induced cell death (% vs untreated cells): 77.35%
